Measured values reported in US20250057973A1, “Exosomes for treating glioblastoma multiforme and manufacturing method thereof” (China Medical University, priority 2023, published 2025).

Columns and labels:
GBM cell line (U87) = test: Animal model of glioblastoma multiforme (U87 implanted into mouse brain): body weight, survival, tumor growth; type: in vivo, mice
Procedure: To corroborate the actual effect of the drug carrier in living organisms, in a further experiment, 10^6 cells of the GBM cell line (U87) were implanted into the brains of mice to establish an animal model of glioblastoma multiforme. Seven days after the implantation surgery, the mice were administered the chemotherapy drug and/or drug carrier via intravenous injection, and imaging was used to confirm the growth status of the chemotherapy drug and/or drug carrier and the GBM cell line in the mouse brain. […]
FIGS. 10D and 10E further analyze the fluorescence expression (intensity (10^6)) of the GBM cell line in the brain area of the experimental mice in each group, and present the tissue morphology through hematoxylin-eosin staining (H&E staining) technique in the tissue section staining images to analyze the growth status of the GBM cells. […]

GBM cell line U87 = test: Cell death rate of GBM cells in the blood-brain barrier cell culture model; type: cell-based; settings: U87, BBB model
Procedure: The blood-brain barrier cell culture model 10 includes a first culture area 11 and a second culture area 12, with multiple perforations 13 connecting the first culture area 11 and the second culture area 12. The first culture area 11 and the second culture area 12 are filled with a hydrogel A. The GBM cell line U87 is cultured in the hydrogel A of the first culture area 11, while endothelial cells 20, pericytes 30, and astrocytes 40 are sequentially arranged in the second culture area 12. Wherein the resistance value of the blood-brain barrier cell culture model 10 is set to 214462 Ω.cm^2 to establish an impedance environment of the blood-brain barrier. In subsequent experiments, the drug carrier is given to the second culture area 12 of the blood-brain barrier cell culture model 10, and experimental analysis is performed on the GBM cell line U87 in the first culture area 11 to confirm the efficacy and therapeutic effect of the drug carrier crossing from the second culture area 12 to the first culture area 11. […]

Cn1nnc2c(C(N)=O)ncn2c1=O [TMZ, Temodal]
survival rate of the experimental mice (GBM cell line (U87); U87 brain-implanted mice, intravenous injection): increased | growth of the GBM cell line in brain (fluorescence intensity) (GBM cell line (U87); compared with Clt and αHLA-G EV groups): inhibited to some extent | cell death rate (%) of the GBM cells (GBM cell line U87; 1st to 3rd day overall): significant cell death rate | cell death rate (%) of the GBM cells, third day (GBM cell line U87; by the third day): tended to moderate
